Consider seven compounds from ChEMBL document CHEMBL1201862, “PubChem BioAssay data set” (2004).

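Assay format: 96-well plates, 48-hour exposure. GI50 = concentration required for 50% inhibition of growth.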 The source made the active and inactive calls. Rule as the data show it: active = GI50 up to about 1.1 µM and inactive = higher. Bounds are passed on as bounds.

Test systems include COLO 205; HOP-92; IGROV-1; U-251; PC-3; OVCAR-4; MCF7; EKVX; MOLT-4; HCC 2998; SF-539; HOP-62; MDA-MB-231; Malme-3M; UO-31; LOX IMVI; UACC-62; A498; A549; OVCAR-5.
Assay in all cases: NCI anticancer screen, dose series, 48 h

As for `Cc1ccc(Cc2n[nH]c(=O)n2N2C(=O)c3ccccc3C2=O)cc1`, the GI50 with COLO 205, in the assay on HOP-92, with IGROV-1, with U-251, in the assay on PC-3 and with OVCAR-4 was > 100 µM (inactive) each time. Further, the GI50 in the assay on MCF7, with EKVX, with MOLT-4, in the assay on HCC 2998, in the assay with SF-539 and in the assay with HOP-62 was > 100 µM (inactive) in each case. The GI50 with MDA-MB-231, in the assay on Malme-3M, in the assay with UO-31, with LOX IMVI, in the assay on UACC-62 and in the assay with A498 was > 100 µM (inactive) throughout. For the same compound, the GI50 with A549 and with OVCAR-5 was > 100 µM (inactive) each time.

For the compound `COc1ccc(N2C(N)=C(C#N)C(C#N)(C#N)C2c2cccc([N+](=O)[O-])c2)cc1` (stereo not given), the GI50 is 10.7 µM (inactive) in the assay with COLO 205; 12.9 µM (inactive) in the assay on HOP-92; 14.7 µM (inactive) with IGROV-1; 17.4 µM (inactive) with U-251; 17.1 µM (inactive) with PC-3; 17.7 µM (inactive) in the assay with OVCAR-4. Besides, the GI50 is 19.9 µM (inactive) with MCF7; 20.7 µM (inactive) in the assay with EKVX; 3.78 µM (inactive) in the assay on MOLT-4; 16.9 µM (inactive) with HCC 2998; 14.7 µM (inactive) in the assay on SF-539; 16.3 µM (inactive) in the assay on HOP-62. Moreover, the GI50 was 14.9 µM (inactive) with MDA-MB-231; 6.73 µM (inactive) in the assay on Malme-3M; 17.3 µM (inactive) in the assay on UO-31; 13.5 µM (inactive) with LOX IMVI; 15.9 µM (inactive) in the assay on UACC-62; 16.1 µM (inactive) in the assay with A498. Also, the figures for the GI50 with A549 and in the assay with OVCAR-5 were 18.3 µM (inactive) and 17.5 µM (inactive), respectively.

For the compound `Cc1ccc(-c2c3nc(c(-c4ccc(C)cc4)c4ccc([nH]4)c(-c4ccc(OCC5COC(C)(C)O5)cc4)c4nc(c(-c5ccc(C)cc5)c5ccc2[nH]5)C=C4)C=C3)cc1` (stereo not given), the GI50 in the assay with COLO 205 is > 31.6 µM (inactive); with HOP-92 it was > 100 µM (inactive); in the assay on IGROV-1, > 31.6 µM (inactive); in the assay with U-251 it was > 31.6 µM (inactive); in the assay on PC-3, > 10 µM (inactive); in the assay with OVCAR-4, > 31.6 µM (inactive). For the same compound, the GI50 with MCF7 is > 31.6 µM (inactive); with EKVX it was 13.5 µM (inactive); in the assay on MOLT-4 it was > 31.6 µM (inactive); in the assay on HCC 2998, > 31.6 µM (inactive); in the assay on SF-539, > 31.6 µM (inactive); with HOP-62, > 31.6 µM (inactive). Also, the GI50 with MDA-MB-231 is > 31.6 µM (inactive); in the assay with Malme-3M it was > 31.6 µM (inactive); in the assay on UO-31, > 31.6 µM (inactive); in the assay with LOX IMVI it was > 31.6 µM (inactive); with UACC-62, > 10 µM (inactive); in the assay on A498, 1.13 µM (inactive). Further, the GI50 with A549 and in the assay on OVCAR-5 was > 31.6 µM (inactive) each time.

Take `CCC(=S)N(C)O`: the GI50 in the assay on COLO 205 is 0.634 µM (active); with HOP-92, > 85.9 µM (inactive); with IGROV-1 it was 6.93 µM (inactive); with U-251, 23.4 µM (inactive); in the assay with PC-3, 8.69 µM (inactive); with OVCAR-4, 9.53 µM (inactive). Besides, the GI50 with MCF7 is 3.71 µM (inactive); in the assay on EKVX, 16.5 µM (inactive); in the assay with MOLT-4 it was 1.88 µM (inactive); in the assay on HCC 2998, 55.6 µM (inactive); in the assay with SF-539, 39.3 µM (inactive); in the assay on HOP-62 it was 43.5 µM (inactive). Moreover, the GI50 is 42.4 µM (inactive) in the assay on MDA-MB-231; 53.5 µM (inactive) with Malme-3M; 26.8 µM (inactive) with UO-31; 10.6 µM (inactive) in the assay on LOX IMVI; 20 µM (inactive) in the assay with UACC-62; 65.9 µM (inactive) in the assay on A498. Further, the GI50 is 20.3 µM (inactive) in the assay on A549 and 45.1 µM (inactive) in the assay with OVCAR-5.

As to `C=CCc1oc(C)nc1CCCC`, the GI50 with COLO 205, with HOP-92, in the assay on IGROV-1, with U-251, in the assay on PC-3 and with OVCAR-4 was > 100 µM (inactive) throughout. Further, the GI50 in the assay on MCF7, in the assay on EKVX, in the assay on MOLT-4, in the assay on HCC 2998, in the assay with SF-539 and with HOP-62 was > 100 µM (inactive) throughout. Further, the GI50 with MDA-MB-231, with Malme-3M, in the assay on UO-31, in the assay on LOX IMVI, with UACC-62 and in the assay on A498 was > 100 µM (inactive) throughout. Also, the GI50 in the assay on A549 and in the assay on OVCAR-5 was > 100 µM (inactive) each time.

Take `COc1ccc(SCc2cc(OCc3ccccc3)c(OCc3ccccc3)c(OCc3ccccc3)c2)cc1`: the GI50 was 2.85 µM (inactive) in the assay with COLO 205; 1.65 µM (inactive) in the assay with HOP-92; 1.79 µM (inactive) in the assay on IGROV-1; 1.77 µM (inactive) in the assay on U-251; 1.92 µM (inactive) in the assay on PC-3; 1.8 µM (inactive) in the assay with OVCAR-4. Also, the GI50 was 1.71 µM (inactive) with MCF7; 2 µM (inactive) in the assay with EKVX; 1.56 µM (inactive) in the assay on MOLT-4; 1.43 µM (inactive) in the assay on HCC 2998; 1.93 µM (inactive) with SF-539; 1.81 µM (inactive) with HOP-62. Further, the GI50 in the assay with MDA-MB-231 was 1.36 µM (inactive); with Malme-3M it was 1.83 µM (inactive); in the assay on UO-31, 1.76 µM (inactive); with LOX IMVI, 1.54 µM (inactive); in the assay with UACC-62, 2.11 µM (inactive); in the assay on A498 it was 2.06 µM (inactive). In addition, the GI50 in the assay on A549 was 2.16 µM (inactive); in the assay with OVCAR-5 it was 1.62 µM (inactive).

`Cc1ccc(Cc2nnc(S)[nH]2)cc1`: the GI50 in the assay on COLO 205 is > 100 µM (inactive); in the assay on HOP-92, > 100 µM (inactive); in the assay with IGROV-1, 50.8 µM (inactive); in the assay with U-251 it was > 100 µM (inactive); with PC-3, > 100 µM (inactive); in the assay with OVCAR-4, 32.3 µM (inactive). In addition, the GI50 in the assay with MCF7 was > 100 µM (inactive); in the assay with EKVX it was > 100 µM (inactive); with MOLT-4, > 100 µM (inactive); in the assay on HCC 2998 it was > 100 µM (inactive); with SF-539, > 100 µM (inactive); in the assay with HOP-62 it was 61.9 µM (inactive). The GI50 was > 100 µM (inactive) with MDA-MB-231; > 100 µM (inactive) with Malme-3M; 79.8 µM (inactive) with UO-31; 74 µM (inactive) in the assay on LOX IMVI; > 100 µM (inactive) in the assay on UACC-62; > 100 µM (inactive) in the assay on A498. Besides, the GI50 was 84.7 µM (inactive) in the assay on A549 and > 100 µM (inactive) in the assay on OVCAR-5.
